In paper PMC6693780, “Triazoloquinazolines as a new class of potent α-glucosidase inhibitors: in vitro evaluation and docking study” (PLoS ONE, 2019):
Values joined by “and” are separate entries in the source; they are usually repeats but may differ in a detail not shown here. Equal entries are not always repeated. Each block holds one molecule with its values, some of them ahead of it.

Molecular target: α-glucosidase enzyme from Saccharomyces cerevisiae type 1
Test: α-Glucosidase inhibitory assay (p-NPG substrate, absorbance at 405 nm)
Format: biochemical
Settings: for IC50: S. cerevisiae α-glucosidase type 1, p-NPG 2 mM, pH 6.5, 37°C, 30 min, triplicate; for times more potent than acarbose: ratio of IC50 values versus acarbose; for inhibition of α-glucosidase (not screened for IC50): screening, concentration not given
Description: For phosphate-buffered saline (PBS), NaH₂PO₄ (1.4 g), NaCl (8 g), KCl (0.2 g), and KH₂PO4 (0.2 g) were dissolved in deionized H2O (1 L) at 20°C. Using NaOH (1M) and HCl (1M), the pH of the solution was adjusted to 6.5 at 20°C. p-Nitrophenyl-α-D-glucopyranoside (2 mM) (p-NPG-substrate) was prepared by dissolving p-NPG (6 mg) in buffer solution (10 mL). α-Glucosidase enzyme Type 1, lyophilized powder (Sigma-Aldrich) from Saccharomyces cerevisiae (a mixture of MAL12 and MAL32) was employed. The enzyme solution was prepared by dissolving 1 mg of in 1000 μL of cold PBS (pH 6.5). Subsequently, 50 μL of α-glucosidase enzyme solution was mixed with cold buffered saline (12 mL) to a concentration of 0.125 unit/mL. For sample screening, a solution of 200 μg/mL concentration was prepared in 100% DMSO, and then subjected to two-fold serial dilution in 5% DMSO in a 96-well microplate to obtain concentrations of 100, 50, 25, 12.5, 6.25, 3.13, and 1.56 μg/mL. The samples were screened using Epoch 2 Microplate Spectrophotometer from BioTek. To each well of the 96-well microplate, 10 μL of DMSO (5%) was added. The stock solution (10 μL) was added to the first well and mixed. Then, 10 μL of sample was withdrawn from the first well and added to the second well, and the process was repeated for two-fold serial dilution. Subsequently, 20 μL of α-glucosidase enzyme, 40 μL of PBS (pH 6.5), and 20 μL of deionized H2O were added to each well of the 96-well microtiter plate with constant stirring. The plate was pre-incubated at 37°C for 10 min, and then 10 μL of p-NPG (2 mM) solution was added to the mixture; its absorbance at 0 min was measured at a wavelength of 405 nm. The reaction mixture was incubated at 37°C for 30 min, and subsequently, its absorbance was measured. […] The experiment was performed in triplicate. According to a previously described methodology, the α-glucosidase inhibitory activity was determined and the inhibition (%) of this activity was calculated using the following equation: %inhibition=(A30min−A0min)control−(A30min−A0min)exp/(A30min−A0min)control×100

SMILES: CSc1nc2[nH]c(=O)c3ccccc3n2n1 [Compound 1]
IC50: 155.9 ± 1.36 µM

SMILES: CS(=O)(=O)c1nc2[nH]c(=O)c3ccccc3n2n1 [Compound 2]
IC50: 180 µM

SMILES: CCn1c(=O)c2ccccc2n2nc(SC)nc12 [Compound 4]
IC50: 45.6 ± 4.28 µM
times more potent than acarbose: ~3

SMILES: C=CCn1c(=O)c2ccccc2n2nc(SC)nc12 [Compound 5]
IC50: 45.6 µM and 72.3 µM

SMILES: CCn1c(=O)c2ccccc2n2nc(S(C)(=O)=O)nc12 [Compound 7]
% inhibition of α-glucosidase (at 0.34 μM): 19.15% inhibition at 0.34 μM
inhibition of α-glucosidase (not screened for IC50): less than 50%

SMILES: C=CCn1c(=O)c2ccccc2n2nc(S(C)(=O)=O)nc12 [Compound 8]
IC50: 28.5 ± 1.22 µM
times more potent than acarbose: ~5

Results, then the molecule that gave them:

IC50: 83.9 ± 5.12 µM
SMILES: O=c1[nH]c2nc(Oc3ccccc3)nn2c2ccccc12 [Compound 3]

% inhibition of α-glucosidase (at 0.28 μM): 16.24% inhibition at 0.28 μM
inhibition of α-glucosidase (not screened for IC50): less than 50%
SMILES: CSc1nc2n(Cc3ccc([N+](=O)[O-])cc3)c(=O)c3ccc(C)cc3n2n1 [Compound 6]

% inhibition of α-glucosidase (at 0.24 μM): 16.89% inhibition at 0.24 μM
SMILES: O=c1c2ccccc2n2nc(Oc3ccccc3)nc2n1Cc1ccc([N+](=O)[O-])cc1 [Compound 9]

% inhibition of α-glucosidase (at 0.25 μM): 14.83% inhibition at 0.25 μM
SMILES: Cc1ccc2c(=O)n(Cc3ccc(C#N)cc3)c3nc(Oc4ccccc4)nn3c2c1 [Compound 10]

% inhibition of α-glucosidase (at 0.23 μM): 19.52% inhibition at 0.23 μM
SMILES: Cc1ccc2c(=O)n(Cc3ccc([N+](=O)[O-])cc3)c3nc(Oc4ccccc4)nn3c2c1 [Compound 11]

IC50: 97.53 ± 0.94 µM
SMILES: O=c1c2ccccc2n2nc(Oc3ccccc3)nc2n1CCN1CCCCC1 [Compound 12]

% inhibition of α-glucosidase (at 0.21 μM): 27.93% inhibition at 0.21 μM
inhibition of α-glucosidase (not screened for IC50): less than 50%
SMILES: Cc1ccc2c(=O)n(Cc3cccc(C#N)c3)c3nc(Oc4ccccc4)nn3c2c1 [Compound 13]

IC50: 12.7 ± 1.87 µM
times more potent than acarbose: approximately 12
SMILES: O=C1c2ccccc2C(=O)N1CCn1c(=O)c2ccccc2n2nc(Oc3ccccc3)nc12 [Compound 14]
